For this experiment, the system named is Saccharomyces cerevisiae ABC16-Green Monster. The conditions noted are these: 18 h; 30 °C; YPD. In outline: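 In 96-well plates, 200 µl per well of log-phase drug-sensitive S. cerevisiae ABC16-Green Monster in YPD received eight 1:2 compound dilutions (final 0.1–150 μM) in biological duplicate and was incubated for 18 h at 30 °C. OD600 was read at the start and at 18 h. IC50 was fitted to the background-subtracted readings by variable-slope nonlinear regression in GraphPad Prism.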

Counter-ions that a name gives are not always drawn. A value given as a limit tells only on which side of the number the result lay.

`Cc1nn(C)cc1C(C)Nc1nncc(-c2ccc(C(F)(F)F)cc2)n1` (stereo unspecified) registered an IC50 growth inhibition of 44.9 µM.

For the compound `Cc1ccc2c(Br)cc(Br)c(OC(=O)c3ccccc3)c2n1` [Broxaldine], the IC50 growth inhibition was found to be 2.24 µM.

In turn, `N=C(N)c1ccc(OCCCCCOc2ccc(C(=N)N)cc2)cc1` [Pentamidine] came in with an IC50 growth inhibition of 85.9 µM.

The compound `CC1=Nn2cc(-c3ccccc3)nc2SC1c1ccccc1` (stereo unspecified) came in with an IC50 growth inhibition of 64.2 µM.

`Cc1nc(C(=N)NOC(=O)c2c(-c3c(Cl)cccc3Cl)noc2C)cs1` showed an IC50 growth inhibition of 21.2 µM.

Consider `CC1N(C)c2ccc(/C=C/c3cc[n+](C)cc3)cc2C1(C)C` (stereo unspecified), for which the IC50 growth inhibition came to 55.2 µM.

`Cc1cc(C(C)(C)CC(C)(C)C)ccc1OCCOCC[N+](C)(C)Cc1ccccc1` [KAAA726] returned an IC50 growth inhibition of 3.74 µM.

On to `N.N.O=C([O-])C1(C(=O)[O-])CCC1.[Pt+2]` [Carboplatin], for which the IC50 growth inhibition is more than 75 µM.

Compound `CC[P](CC)(CC)=[Au][S][C@H]1O[C@@H](COC(C)=O)[C@H](OC(C)=O)[C@@H](OC(C)=O)[C@@H]1OC(C)=O` displayed an IC50 growth inhibition of 28.2 µM.

For the compound `COC(=O)c1ccc(C(=O)OC)c(N2C(=O)C=CC2=O)c1`, the IC50 growth inhibition amounted to 67.7 µM.

`CCN(CC)CCCC(C)Nc1ccnc2cc(Cl)ccc12` (stereo unspecified) [Chloroquine]: the IC50 growth inhibition is more than 75 µM.

The compound `Cc1cc(C2CCCCC2)n(O)c(=O)c1` [Ciclopirox] gave an IC50 growth inhibition of 33.4 µM.

`FC(F)(F)c1ccc(N(c2cccnc2)C2CCN(c3ccc(C(F)(F)F)cn3)CC2)cc1` displayed an IC50 growth inhibition of 40 µM.

With `COC1OC2OC3(C)CCC4C(C)CCC(C1C)C24OO3` (stereo unspecified) [Artemether], the IC50 growth inhibition was determined as 70.6 µM.

Take `Cc1cccc2sc(C(=O)NCc3cccc(NS(N)(=O)=O)c3)c(Cl)c12`: the IC50 growth inhibition was determined as 70.6 µM.

`Cn1ccnc1CNCCS(=O)(=O)c1cccc(Nc2ccc(-c3cccc(F)c3)cn2)c1` gave an IC50 growth inhibition of 50.5 µM.

Turning to `OC(CNCC1CCCO1)Cn1c2ccc(Cl)cc2c2cc(Cl)ccc21` (stereo unspecified), the IC50 growth inhibition stood at 4.91 µM.

For `C/C=C/[C@H]1O[C@@](O)([C@@H](C)[C@H](O)[C@H](C)[C@H]2OC(=O)/C(OC)=C\C(C)=C\[C@@H](C)[C@@H](O)[C@@H](CC)[C@@H](O)[C@H](C)C/C(C)=C/C=C/[C@@H]2OC)C[C@@H](O[C@H]2C[C@@H](O)[C@H](OC(=N)O)[C@@H](C)O2)[C@@H]1C` [Concanamycin A], the IC50 growth inhibition is 6.1 µM.

For `CON=C(C(=O)OC)c1ccccc1CON=C(C)c1cccc(C(F)(F)F)c1` [Trifloxystrobin], the IC50 growth inhibition was more than 75 µM.

In turn, `COc1cc(NC(C)CCCN)c2ncccc2c1` (stereo unspecified) [Primaquine] registered an IC50 growth inhibition of 107 µM.

Turning to `Cc1cc(C(=O)Cn2cnc3ccccc3c2=O)c(C)n1-c1ccccc1`, the IC50 growth inhibition was found to be 61 µM.

For `FC(F)(F)c1cccc(-c2nc3c(NCc4ccncc4)nccc3[nH]2)c1`, the IC50 growth inhibition worked out at 41.6 µM.

`O=C(Nc1nnc(-c2ccc(Cl)cc2)o1)c1cccc(C(F)(F)F)c1` had an IC50 growth inhibition of 71.2 µM.

`Cc1ccc(NC(=O)c2ccc(CN3CCN(C)CC3)cc2)cc1Nc1nccc(-c2cccnc2)n1` [Imatinib]: the IC50 growth inhibition is more than 75 µM.

On to `CC[C@H]1OC(=O)[C@H](C)[C@@H](O[C@H]2C[C@@](C)(OC)[C@@H](O)[C@H](C)O2)[C@H](C)[C@@H](O[C@@H]2O[C@H](C)C[C@H](N(C)C)[C@H]2O)[C@](C)(O)C[C@@H](C)C(=O)[C@H](C)[C@@H](O)[C@]1(C)O` [Erythromycin], for which the IC50 growth inhibition is more than 75 µM.

Turning to `CCC(=C(c1ccc(O)cc1)c1ccc(OCCNC)cc1)c1ccccc1` [Endoxifen], the IC50 growth inhibition amounted to 8.3 µM.

The compound `Nc1ccn(C2OC(CO)C(O)C2(F)F)c(=O)n1` (stereo unspecified) [Gemcitabine] gave an IC50 growth inhibition of more than 75 µM.

In turn, `Clc1cccc(Nc2ncc(-c3ccc4c(c3)OCCCO4)s2)c1` displayed an IC50 growth inhibition of 15.4 µM.

For the compound `CC(Oc1ccc(Cl)cc1Cl)c1nc(-c2ccc(NC(=O)c3ccco3)cc2)no1` (stereo unspecified) [GNF-Pf-3333], the IC50 growth inhibition was 2.8 µM.

On to `CC(Oc1ccc(Cl)cc1Cl)c1nc(-c2ccc(NC(=O)c3cccs3)cc2)no1` (stereo unspecified) [GNF-Pf-2823], for which the IC50 growth inhibition was 3.9 µM.

`CCn1nc(-c2ccc(C(=O)OC)cc2)nc2c(=O)n(C)c(=O)nc1-2` yielded an IC50 growth inhibition of 0.601 µM.

The compound `O=C1c2ccccc2C2=Nc3ccccc3SC(c3cccc(F)c3)C12` (stereo unspecified) gave an IC50 growth inhibition of 1.68 µM.

On to `CNC1CC2OC(C)(C1OC)n1c3ccccc3c3c4c(c5c6ccccc6n2c5c31)C(=O)NC4` (stereo unspecified) [Staurosporine], for which the IC50 growth inhibition was determined as 0.206 µM.

`Cc1cc(F)c(C(=O)Nc2cccc(-c3nncn3C(C)C)n2)cc1-n1cnc(C2CC2)c1` [GS-4997] registered an IC50 growth inhibition of more than 75 µM.

For the compound `CCC(C)CC(C)CCCCCCCCC(=O)NC1CC(O)C(NCCN)NC(=O)C2C(O)CCN2C(=O)C(C(O)CCN)NC(=O)C(C(O)C(O)c2ccc(O)cc2)NC(=O)C2CC(O)CN2C(=O)C(C(C)O)NC1=O` (stereo unspecified) [Caspofungin], the IC50 growth inhibition worked out at 0.0305 µM.

Compound `COc1ccc(C2CC(c3cccs3)=NN2C(=O)c2ccco2)cc1OC` (stereo unspecified) had an IC50 growth inhibition of 83.6 µM.

`Clc1ccc(COC(Cn2ccnc2)c2ccc(Cl)cc2Cl)c(Cl)c1` (stereo unspecified) [Miconazole] gave an IC50 growth inhibition of 0.007 µM.

Take `CCOC(=O)c1c(NC(=O)c2c(F)c(F)c(F)c(F)c2F)sc(C(N)=O)c1C`: the IC50 growth inhibition is 47.8 µM.

Turning to `c1ccc(Oc2ccc(-c3cc(C4CCOCC4)[nH]n3)cc2)cc1`, the IC50 growth inhibition is 55.6 µM.

Take `OC1=C2C(=Nc3ccccc3SC2c2ccccc2)c2ccccc21` (stereo unspecified) [GNF-Pf-4583]: the IC50 growth inhibition came out at 2.54 µM.

Consider `OC(CNC1CCCCC1)Cn1c2ccc(I)cc2c2cc(I)ccc21` (stereo unspecified), for which the IC50 growth inhibition amounted to 3.98 µM.

Consider `CN1CC(C(=O)NC2(C)OC3(O)C4CCCN4C(=O)C(Cc4ccccc4)N3C2=O)CC2c3cccc4[nH]cc(c34)CC21` (stereo unspecified) [Dihydroergotamine], for which the IC50 growth inhibition was more than 75 µM.

`CC(=O)N(C1=C(N2CCOCC2)C(=O)c2ccccc2C1=O)c1cccc(Cl)c1` [GNF-Pf-2288] showed an IC50 growth inhibition of 41.7 µM.

In turn, `Cn1cc(CN2CCc3c(c(C(=O)NCc4nccs4)nn3Cc3ccccc3)C2)c2ccccc21` gave an IC50 growth inhibition of 109 µM.

With `CCOc1ccc(C(=O)CN(C#N)C(=O)c2ccccc2)cc1`, the IC50 growth inhibition came to 25 µM.

`Nc1ncnc2c1ncn2CC(O)C(O)C(=O)O` (stereo unspecified) [Eritadenine] displayed an IC50 growth inhibition of more than 75 µM.

Take `O=C(Nc1cccc(C(F)(F)F)c1)c1cc(Cl)ccc1O`: the IC50 growth inhibition stood at 4.18 µM.

Compound `CC(C)(C)c1ccc2c(c1)CN(Cc1ccc(Cl)cc1)CO2` gave an IC50 growth inhibition of 14.3 µM.

On to `O=C(NC1CC1)c1ccc(N2CCOc3ccc(Cl)cc32)s1`, for which the IC50 growth inhibition amounted to 32.6 µM.

`O=C(Nc1ccc2c(c1)B(O)OC2)c1ccccc1C(F)(F)F`: the IC50 growth inhibition was determined as 1.72 µM.

`CC[C@@]1(O)C[C@H](O[C@H]2C[C@H](N(C)C)[C@H](O[C@H]3C[C@H](O)[C@H](O[C@H]4CCC(=O)[C@H](C)O4)[C@H](C)O3)[C@H](C)O2)c2c(cc3c(c2O)C(=O)c2c(O)cccc2C3=O)[C@H]1C(=O)OC` [Aclarubicin]: the IC50 growth inhibition is 4.79 µM.

`OC1=C2C(=Nc3ccccc3SC2c2cccs2)c2ccccc21` (stereo unspecified) [GNF-Pf-5669] had an IC50 growth inhibition of more than 150 µM.

`Cc1ccc2nc3ccccc3c(N3CCN(C(=O)c4ccccc4)CC3)c2c1` showed an IC50 growth inhibition of 6.15 µM.

The compound `N#C/C(=N\Nc1cc(C(F)(F)F)cc(C(F)(F)F)c1)S(=O)(=O)c1cccs1` showed an IC50 growth inhibition of 99 µM.

For `c1ccc(-c2cc(N3CCCCC3)c3ccccc3n2)nc1`, the IC50 growth inhibition is 42.9 µM.

Regarding `CCN(CC)S(=O)(=O)c1ccc(C(=O)Nc2cc(C)nn2-c2nc(C)c(C)c(=O)[nH]2)cc1`, the IC50 growth inhibition stood at 68.4 µM.

`Cc1cc(C(=O)Cn2c(CO)nc3ccccc32)c(C)n1-c1ccccc1`: the IC50 growth inhibition came out at 62.4 µM.

As for `OCCc1ccc(Nc2nccc(-c3nnc4ccccn34)n2)cc1`, the IC50 growth inhibition came out at 43.9 µM.

For `CCCc1nn(C)c2c(=O)nc(-c3cc(S(=O)(=O)N4CCN(C)CC4)ccc3OCC)[nH]c12` [Sildenafil citrate], the IC50 growth inhibition was more than 75 µM.

`O=C1CCc2ccc(OCCCCN3CCN(c4cccc(Cl)c4Cl)CC3)cc2N1` [Aripiprazole] yielded an IC50 growth inhibition of 9.31 µM.

`c1ccc(CSc2scnc2[P+](c2ccccc2)(c2ccccc2)c2ccccc2)cc1` [GNF-Pf-238] came in with an IC50 growth inhibition of 4.06 µM.

Consider `NC(=O)[C@@H](CC1CC1)[C@@H](CCC(F)(F)F)C(=O)N[C@H]1N=C(c2ccccc2)c2cccc(F)c2NC1=O`, for which the IC50 growth inhibition was 2.06 µM.

For the compound `COc1ccccc1N=C1C(=O)c2ccccc2C(O)=C1N1CCCCC1`, the IC50 growth inhibition was 7.84 µM.

Regarding `O=CN(O)CCCP(=O)(O)O` [Fosmidomycin], the IC50 growth inhibition is more than 75 µM.

Take `Br.Cc1ccnc(Nc2nc(-c3ccccn3)cs2)c1` [GNF-Pf-4739]: the IC50 growth inhibition stood at 4.6 µM.

Compound `COc1ccc(C2CC(=O)C3=C(C2)NC(C)=C(C(=O)OC2CCCC2)C3c2ccc([N+](=O)[O-])cc2)cc1OC` (stereo unspecified) [GNF-Pf-5639] came in with an IC50 growth inhibition of 9.8 µM.

Compound `CCC(=C(CC)c1ccc(O)cc1)c1ccc(O)cc1` [Diethylstilbestrol] registered an IC50 growth inhibition of 5.86 µM.

As to `O=C1C2=C(Nc3ccccc3SC2c2ccccc2F)c2ccccc21` (stereo unspecified), the IC50 growth inhibition is 9.02 µM.

`CN(CC1COc2ccccc2O1)C(=O)Nc1nc2ccccc2s1` (stereo unspecified) registered an IC50 growth inhibition of 48 µM.

For the compound `CC1=NN(c2nc3ccccc3[nH]2)C(=O)C1Cc1ccccc1` (stereo unspecified) [CBR110], the IC50 growth inhibition turned out to be 3.48 µM.

In turn, `CCS(=O)(=O)N1Cc2ccccc2CC1C(=O)Nc1nc2ccc(F)cc2s1` (stereo unspecified) came in with an IC50 growth inhibition of 74 µM.

The record behind these values is the supplement of paper PMC8837787.
